Reference: patent US20160304970A1, “GENE BIOMARKER TO DIAGNOSE METASTIC LIVER CANCER AND METHODS FOR TARGETING THE SAME” (University of Southern California, priority 2015, published 2016)
Several values for one entry are separate records, joined by “and”; a condition that tells them apart may be missing. Equal entries are not always repeated.

Legend:
TICs [1] = test: Seahorse extracellular flux analysis (OCR, ECAR); type: cell-based; settings: for FCCP-induced OCR: Nanog silenced TICs, ETO 100 μM
Procedure: To measure cellular bioenergetics using extracellular flux, a Seahorse […] Extracellular Flux Analyzer was used following the published protocol (Ahfeldt et al., 2012; Ferrick et al., 2008). […] Cells were plated in gelatin-coated XF 24-well cell culture microplates at 2-7.5×10^4 cells/well (Seahorse Bioscience) and incubated in pre-warmed unbuffered DMEM medium (DMEM containing 2 mM GlutaMAX, 1 mM sodium pyruvate, 1.85 g l^−1 NaCl and 25 mM glucose) for 1 h. The oxygen consumption was measured by the XF24 extracellular flux analyzer (Seahorse Biosciences) in unbuffered DMEM assay medium supplemented with 1 mM pyruvate and 25 mM glucose after 45 to 60 min equilibration.
The characteristic function of mature hepatocytes is metabolism/thermogenesis, driven by the catabolic breakdown of lipids. To distinguish these tumor cells at a functional level, the oxygen consumption rate (OCR) and extracellular acidification rate (ECAR) were analyzed as previously described (Ahfeldt et al.). It was observed that the basal OCR and ECAR rates were highest in the Nanog-silenced TICs. Compounds were added that modulated mitochondrial function sequentially and measured the effect on OCR and ECAR after the addition of each compound. Oligomycin was first administered to determine ATP turnover and the degree of proton leakage. […] After the addition of the electron transport chain decoupler (FCCP), the maximal respiratory capacity was measured. […] Finally, antimycin was administered to inhibit the flux of electrons through complex III and prevent oxygen consumption by the cytochrome c oxidase in the mitochondria as previously described. For determination of individual ETC complex activities, mitochondrial biogenesis was profiled by adding perturbation drugs: 2 μM oligomycin, 0.5 μM FCCP and 5 μM antimycin A/rotenone, in succession. OCR for complexes II-IV was measured by first inhibiting complex I with rotenone; OCR for complexes III-IV was measured by first inhibiting complex II with […]; and OCR for complex IV was measured by first inhibiting complex III with antimycin. The Etomoxir (ETO, 100 μM)-sensitive component of oxygen consumption rate (OCR) represents FAO. Absolute values of OCR were expressed as pmol min^−1 per 10^6 cells and mpH min^−1 per 10^6 cells. OCR and ECAR were determined by plotting the oxygen tension and acidification of the medium in the chamber as a function of time and normalized to protein concentration (picomoles per minute per milligram), respectively. […]
The ECAR was measured over time at 10 min intervals. […] By uncoupling the proton gradient with FCCP, the maximum OCR rates were determined over the next two time intervals (II). By addition of glycolysis inhibitor (2-DG) or CPT1 inhibitor (ETO), the OCR rates were determined over the next two time intervals (III). […]

TICs [2] = test: ATP production measurements; type: cell-based; settings: inhibitors for 4 hr
Procedure: Relative ATP/cell assays were performed in 96-well plates. After cells were treated with inhibitors for 4 hr, culture media was removed. Cell Titer-Glo (100 μl: Promega) and CyQUANT (Invitrogen) were immediately added to each well. Luminescence and fluorescence readings were consecutively measured after room-temperature incubation for 10 min.

mouse TICs = test: TIC xenograft in NOG mice, sorafenib resistance; type: in vivo; settings: mouse TICs subcutaneously in NOG mice
TICs [3] = test: Cytochrome c release, immunoblot of cytosol and heavy membrane fractions; type: cell-based
TICs [4] = test: ROS levels and spheroid formation of TICs; type: cell-based
Procedure: To evaluate the status of mitochondria in TICs, the MitoTracker® Mitochondrion-selective probes for total mitochondrial mass (MitoTracker® Deep Red FM Invitrogen: M22426) and for oxidized state mitochondria (MitoSOX™ Red mitochondrial superoxide indicator) were added to the media, respectively, and cells subjected to FACS analyses. ROS labeling was performed as per the instructions for CellROX® Oxidative stress reagent Probes (CellROX® green reagent, Invitrogen C10444). In brief, the cells were incubated with staining solution (100 nM) in culture media at 37° C. for 30 minutes. After staining was complete, cells were washed with PBS and analyzed by fluorescent microscopy or flow cytometry.

CD133 (+) Huh7 cells = test: CD133 cell viability screening (luminescence, CellTiter-Glo); type: cell-based; settings: Homo sapiens, Huh-7
Procedure: (§1) CD133(+) and CD133(−) Huh7 cells were freshly sorted using the MACS CD133 micro bead kit (Miltenyi Biotec, 130-050-801) and were seeded in 100 μl medium containing 5000 cells per well in a 96-well plate. Once the cells attached, the FDA approved drug library was added to each well to a final concentration of 20 μg/ml in duplicate. After incubation for 48 hours, the cell viability was determined by a luminescence assay. […] After 16 hours, 1 μl of a […] drug solution was individually added to the 96 wells, resulting in a 20 μg/ml final concentration for most compounds. After 48 hours, CellTiter-Glo® Reagent (G8233, Promega) was added and the luminescence signal was measured with an automated plate reader. The raw data for each well was background-corrected by DMSO control wells on the same plate.
Freshly sorted CD133 (+) Huh7 or mouse TICs were plated in 100 μl of medium containing 5000 cells per well in a 96-well plate. After 16 hours, 0.5 μl of a 2 μg/ml, 1 μg/ml, 0.2 μg/ml, 0.1 μg/ml, 0.02 μg/ml, or 0.01 μg/ml compound was added to each well in triplicate, resulting in a 10 μg/ml, 5 μg/ml, 1 μg/ml, 0.5 μg/ml, 0.1 μg/ml, and 0.05 μg/ml final concentration for most compounds, respectively. After 48 hours, the cells were either measured for cell viability by Cell-Glo® Reagent (Promega), or fixed with 1% PFA (paraformaldehyde) and stained with DAPI for high-throughput screening.

[5] = as above; type: cell-based; settings: human, CD133 (−) Huh7 cells (freshly MACS-sorted)
Procedure: as §1

hepatocytes = test: Cytochrome c release, immunoblot of cytosol and heavy membrane fractions; type: cell-based; settings: within 1-3 hours post treatment
TICs [6] = settings: cited from earlier work
TICs [7] = test: Stable-isotope glutaminolysis analysis; type: cell-based
Procedure: To test the glutamine utilization, TICs were incubated in 1 mM of [U-^13C5, 2,5-^15N2]-glutamine (Cambridge Isotope Laboratory, Cat # CNLM-1275-H-PK) for 4 hr. When [U-^13C5, 2,5-^15N2]-glutamine is taken up by cells, it loses the ^15N on the 5th carbon and is converted to [U-^13C5, 2-^15N]-glutamate, which loses the ^15N on the 2nd carbon and becomes [U-^13C5]-glutamate after rapid equilibration with TCA cycle intermediate α-ketoglutarate. When glutamine and glutamate were analyzed by gas chromatography mass spectrometry (GC-MS) using electronic impact ionization (EI), their TFA derivatives gave rise to C2-C4 (m/z 152) and C2-C5 (m/z 198) fragments. Thus, the [U-^13C5, 2-^15N]-glutamate has a C2-C4 fragment of m/z 156 (M4; contains 3×^13C and a ^15N) and a C2-C5 fragment of […] (M5; contains 4×^13C and a ^15N), which represent the relative abundance of glutamine taken up by the TICs. On the other hand, [U-^13C5]-glutamate has a C2-C4 fragment of m/z 155 (M3; contains 3×^13C) and a C2-C5 fragment of […] (M4; contains 4×^13C). When the [U-^13C5]-glutamate enters TCA cycle metabolism, it will gradually lose the ^13C carbon after each cycle and generate M2, M1, and M0 C2-C4 fragment and M3, M2, M1, and M0 C2-C5 fragment, which represent the TCA cycle activity. […]

O=CC[C@@H](O)[C@H](O)[C@H](O)CO [2-DG, 2-deoxyglucose]
FCCP-induced OCR (TICs [1]): not | ATP production (TICs [2]): did not significantly lower ATP production

CCOC(=O)[C@@]1(CCCCCCOc2ccc(Cl)cc2)CO1 [ETO, Etomoxir]
xenograft tumor growth / sorafenib resistance (mouse TICs): sensitized TICs to sorafenib | cytochrome c release from mitochondria (TICs [3]; in response to sorafenib treatment): enhanced | FCCP-induced OCR (TICs [1]): antagonized | ECAR (TICs [1]; sh-Nanog-TICs): inhibits | ECAR (TICs [1]; sh-Scr-TICs): does not affect | ATP production (TICs [2]): reduced ATP production

C[n+]1ccc(-c2cc[n+](C)cc2)cc1 [Paraquat]
ROS production (TICs [4]): increased ROS production | tumor spheroid formation of TICs (TICs [4]): significantly reduced

COc1cc(C)c(/C=C/C(C)=C/C=C/C(C)=C/C(=O)O)c(C)c1C [acitretin]
viability at 20 µg/mL (CD133 (+) Huh7 cells; 20 μg/ml, 48 hours): 12% | IC50 (CD133 (+) Huh7 cells; CD133 killing effect, FIG. 44A): 7.37 µg/mL and 22.6 µM | viability at 48 h, 20 μg/ml [5]: 70.4%

CNC(=O)c1cc(Oc2ccc(NC(=O)Nc3ccc(Cl)c(C(F)(F)F)c3)cc2)ccn1 [sorafenib]
cytochrome c localisation following sorafenib treatment (hepatocytes): translocated from mitochondria into the soluble fraction | xenograft tumor growth / sorafenib resistance (mouse TICs): very resistant | cytochrome c localisation following sorafenib treatment (TICs [3]; TICs): remained mostly in the heavy membrane (HM) fraction | tumor size reduction (TICs [6]; sorafenib combined with knockdown of YAP1 (Chen et al., 2013)): ~55% | suppression of tumor growth (TICs [6]; sorafenib with antagonism of NANOG in TICs, tumor-bearing mice (Huynh et al., 2009)): ~90%

C=CC(N)CCC(=O)O (stereo not shown) [vigabatrin]
percentage of labeled succinate (TICs [7]): does not reduce
